{"source": "the kinase profiling compilation of Christmann-Franck et al. (2016)", "key": {"FER (human)": {"target": "FER (human) (UniProt P16591)", "sequence (P16591 whole entry, looked up)": "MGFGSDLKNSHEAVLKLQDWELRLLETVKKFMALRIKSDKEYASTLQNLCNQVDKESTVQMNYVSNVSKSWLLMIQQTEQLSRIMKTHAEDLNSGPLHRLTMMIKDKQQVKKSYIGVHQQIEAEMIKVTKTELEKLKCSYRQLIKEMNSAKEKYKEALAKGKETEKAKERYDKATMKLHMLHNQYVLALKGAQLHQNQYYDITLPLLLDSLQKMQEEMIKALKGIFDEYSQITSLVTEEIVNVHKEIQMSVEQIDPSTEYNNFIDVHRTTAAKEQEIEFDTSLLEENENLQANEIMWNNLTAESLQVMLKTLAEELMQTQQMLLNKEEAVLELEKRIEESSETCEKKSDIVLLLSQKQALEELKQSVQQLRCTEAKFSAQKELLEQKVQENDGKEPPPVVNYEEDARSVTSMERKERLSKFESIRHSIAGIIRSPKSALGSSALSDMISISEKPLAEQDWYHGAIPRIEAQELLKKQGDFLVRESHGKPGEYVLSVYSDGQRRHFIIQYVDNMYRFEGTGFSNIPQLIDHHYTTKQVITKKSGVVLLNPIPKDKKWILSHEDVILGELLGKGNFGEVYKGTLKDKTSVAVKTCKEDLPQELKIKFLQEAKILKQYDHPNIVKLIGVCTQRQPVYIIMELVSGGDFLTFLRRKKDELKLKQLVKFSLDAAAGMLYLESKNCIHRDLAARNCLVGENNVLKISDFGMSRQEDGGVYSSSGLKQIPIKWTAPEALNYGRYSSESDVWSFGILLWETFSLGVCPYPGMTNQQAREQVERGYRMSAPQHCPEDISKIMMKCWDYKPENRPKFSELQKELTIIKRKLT", "experiment": "radiometric filter-binding kinase assay, Kinaseprofiler", "details": "compound 10.0 µM; ATP 70 µM"}, "RPS6KA6 KD1 KD2 (human)": {"target": "RPS6KA6 KD1 KD2 (human) (UniProt Q9UK32)", "sequence (Q9UK32 whole entry, looked up)": "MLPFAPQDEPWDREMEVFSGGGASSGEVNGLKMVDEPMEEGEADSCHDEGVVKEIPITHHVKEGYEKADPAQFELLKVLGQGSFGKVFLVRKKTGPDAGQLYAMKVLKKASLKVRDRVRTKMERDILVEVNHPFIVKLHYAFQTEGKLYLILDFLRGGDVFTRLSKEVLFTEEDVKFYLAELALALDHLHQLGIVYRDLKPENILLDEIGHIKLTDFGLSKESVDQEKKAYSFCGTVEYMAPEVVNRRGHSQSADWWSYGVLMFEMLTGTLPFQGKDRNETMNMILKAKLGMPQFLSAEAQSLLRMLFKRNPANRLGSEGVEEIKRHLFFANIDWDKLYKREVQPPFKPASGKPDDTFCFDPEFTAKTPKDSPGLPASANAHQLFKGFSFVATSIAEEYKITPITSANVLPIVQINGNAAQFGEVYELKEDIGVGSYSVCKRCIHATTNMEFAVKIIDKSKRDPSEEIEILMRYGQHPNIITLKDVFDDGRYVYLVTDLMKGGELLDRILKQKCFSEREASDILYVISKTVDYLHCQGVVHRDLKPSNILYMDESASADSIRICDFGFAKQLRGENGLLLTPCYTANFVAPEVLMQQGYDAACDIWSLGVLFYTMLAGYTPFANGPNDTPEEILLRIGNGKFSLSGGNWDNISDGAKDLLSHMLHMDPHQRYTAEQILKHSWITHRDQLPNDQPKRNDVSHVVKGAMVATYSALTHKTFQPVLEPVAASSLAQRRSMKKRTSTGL", "experiment": "radiometric filter-binding kinase assay, Kinaseprofiler", "details": "compound 1.0 µM; ATP 45 µM"}}, "data": [{"smiles": "COC(=O)[C@]1(O)C[C@@H]2O[C@@]1(C)n1c3ccccc3c3c4c(c5c6ccccc6n2c5c31)C(=O)NC4", "values": [{"measurement": "residual activity", "setting": "FER (human)", "value": 0, "unit": "%"}, {"measurement": "residual activity", "setting": "RPS6KA6 KD1 KD2 (human)", "value": -2, "unit": "%"}]}]}
